The record followed here is ChEMBL document CHEMBL1141977 (Bioorg Med Chem Lett, 2005).

By Ki is commonly meant a dissociation constant, usually derived from enzyme kinetics or from competition with a known ligand. Low readings indicate a stronger hold on the target, high ones a looser hold on the target. A word on the Emax: it is the maximal effect, on the per cent scale that the assay sets.

Assay [1] concerns the target Sodium-dependent serotonin transporter (Rattus norvegicus, UniProt P31652). The assay can be described thus: Binding affinity determined against Serotonin transporter determined by displacement of [3H]paroxetine from rat cortical membranes. Type of assay: cell membranes, Membrane.
For assay [2], the target named is T1, 5-hydroxytryptamine receptor 1A (Homo sapiens) (UniProt P08908).
T1 sequence (whole entry): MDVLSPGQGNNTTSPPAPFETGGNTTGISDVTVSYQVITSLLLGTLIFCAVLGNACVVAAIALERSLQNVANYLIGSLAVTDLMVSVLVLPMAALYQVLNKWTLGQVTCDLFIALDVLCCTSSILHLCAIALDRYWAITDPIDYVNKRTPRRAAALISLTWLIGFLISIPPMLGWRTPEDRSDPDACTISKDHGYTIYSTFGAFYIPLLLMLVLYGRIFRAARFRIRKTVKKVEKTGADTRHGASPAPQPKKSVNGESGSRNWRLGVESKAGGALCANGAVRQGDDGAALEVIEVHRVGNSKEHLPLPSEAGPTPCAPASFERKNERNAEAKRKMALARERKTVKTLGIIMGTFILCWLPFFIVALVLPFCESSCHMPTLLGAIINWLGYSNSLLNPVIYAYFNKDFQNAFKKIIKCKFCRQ
The assay can be described thus: Intrinsic activity towards 5-HT1A receptor using [35S]GTP-gamma-S, binding assay. It counts as functional. A general note: GTPγS is a poorly hydrolysed GTP analogue; its binding reports G protein activation.

The target of assay [3] is T2, 5-hydroxytryptamine receptor 1A (Homo sapiens, UniProt P08908).
T2 sequence (P08908 whole entry): T1 sequence (whole entry)
The assay can be described thus: Binding affinity determined against human 5-hydroxytryptamine 1A receptors transfected into CHO cells. It counts as cell-based.

Chain of Sodium-dependent serotonin transporter (P31652 whole entry): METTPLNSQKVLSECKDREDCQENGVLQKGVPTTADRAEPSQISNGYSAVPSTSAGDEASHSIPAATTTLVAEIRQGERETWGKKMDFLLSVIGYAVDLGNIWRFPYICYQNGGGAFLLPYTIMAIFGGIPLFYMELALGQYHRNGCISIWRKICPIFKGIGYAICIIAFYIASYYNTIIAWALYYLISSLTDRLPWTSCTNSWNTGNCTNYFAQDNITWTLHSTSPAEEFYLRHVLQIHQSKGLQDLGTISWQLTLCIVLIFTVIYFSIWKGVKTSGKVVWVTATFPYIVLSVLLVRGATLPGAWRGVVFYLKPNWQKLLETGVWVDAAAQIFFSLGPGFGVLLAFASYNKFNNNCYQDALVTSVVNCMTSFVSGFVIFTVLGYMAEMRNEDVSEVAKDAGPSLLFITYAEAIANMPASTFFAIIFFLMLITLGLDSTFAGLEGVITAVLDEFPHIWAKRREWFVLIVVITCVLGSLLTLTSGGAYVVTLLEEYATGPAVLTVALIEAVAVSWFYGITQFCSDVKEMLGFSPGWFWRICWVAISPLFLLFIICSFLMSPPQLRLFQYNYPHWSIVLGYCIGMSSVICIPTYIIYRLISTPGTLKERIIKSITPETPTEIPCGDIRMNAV

As to `Fc1ccc2[nH]cc([C@H]3CC[C@H](N4CCN(c5cccc6c5OCCO6)CC4)CC3)c2c1`, in assay [1], the affinity corresponds to a Ki of 67.2 nM. Further, in assay [2], the Emax was determined as 57%.
For the molecule `COc1ccccc1N1CCN([C@H]2CC[C@@H](c3c[nH]c4ccc(F)cc43)CC2)CC1`, the Ki was determined as 3.3 nM in assay [1] and 129 nM in assay [3]. This molecule registered an Emax in assay [2] of 5%.
Molecule `Fc1ccc2[nH]cc([C@H]3CC[C@H](N4CCN(c5cccc6[nH]ccc56)CC4)CC3)c2c1` came in with a maximal response (Emax) in assay [2] of 43%.
Take `Fc1ccc2[nH]cc([C@H]3CC[C@@H](NCCOc4cccc5[nH]ccc45)CC3)c2c1`: in assay [1], the inhibition constant (Ki) came out at 12.6 nM. Further, the maximum response (Emax) in assay [2] turned out to be 7%.
In the case of `Fc1ccc2[nH]cc([C@H]3CC[C@@H](NCC4COc5ccccc5O4)CC3)c2c1` (stereo not given in full), the values for the inhibitory constant (Ki) in assay [1] and in assay [3] were 23.2 nM and 332 nM, respectively. In assay [2], this molecule returned a maximal effect (Emax) of 44%.
With `COc1ccccc1N1CCN([C@H]2CC[C@H](c3c[nH]c4ccc(F)cc43)CC2)CC1`, the values for the Ki in assay [1] and in assay [3] were 46.1 nM and 14.3 nM, respectively. The Emax in assay [2] was found to be 29%.
In the case of `Fc1ccc2[nH]cc([C@H]3CC[C@H](NCC4COc5ccccc5O4)CC3)c2c1` (stereo not given in full), the Ki in assay [1] came to 14.1 nM; in assay [3] it was 194 nM. In assay [2], this molecule returned an Emax of 94%.
Take `Fc1ccc2[nH]cc([C@H]3CC[C@@H](N4CCN(c5cccc6c5OCCO6)CC4)CC3)c2c1`: the affinity in assay [1], expressed as Ki, was 5.31 nM. The maximal response (Emax) in assay [2] is 0%.
In the case of `COc1ccccc1OCCN[C@H]1CC[C@H](c2c[nH]c3ccc(F)cc32)CC1`, the maximum response (Emax) in assay [2] came to 80%. For the same molecule, the inhibition constant Ki in assay [3] was 22.4 nM.
In assay [1], `Fc1ccc2[nH]cc([C@H]3CC[C@H](NCCOc4cccc5c4OCCO5)CC3)c2c1` came in with a Ki of 1.05 nM. Also, the Emax in assay [2] came to 43%.
Regarding `Fc1ccc2[nH]cc([C@H]3CC[C@@H](N4CCN(c5cccc6[nH]ccc56)CC4)CC3)c2c1`, the Emax in assay [2] worked out at 10%.
On to `COc1ccccc1OCCN[C@H]1CC[C@@H](c2c[nH]c3ccc(F)cc32)CC1`, for which the maximal response (Emax) in assay [2] came out at 22%. The Ki in assay [3] was 307 nM.
Molecule `Fc1ccc2[nH]cc([C@H]3CC[C@H](NCCOc4cccc5[nH]ccc45)CC3)c2c1` yielded a Ki in assay [1] of 1.73 nM. Also, the Emax in assay [2] worked out at 59%.
Regarding `Fc1ccc2[nH]cc([C@H]3CC[C@@H](NCCOc4cccc5c4OCCO5)CC3)c2c1`, the Ki in assay [1] turned out to be 12.1 nM. Also, the Emax in assay [2] is 27%.
